The values below come from patent US20240315989A1 (priority 2021, published 2024).

The target in assay [1] is T1, σ1 site (Homo sapiens, UniProt Q99720). The conditions noted are these: read-out: Affinity for σ1 Site (Ki or KD values); cited from earlier work.
In assay [2] the target is T1, σ1 site. The following applies: cited from earlier work.
Assay [3] deals with SARS-CoV-2 infection. The assay is described as follows: Retrospective cohort (BJC Healthcare): antidepressant exposure and ED or hospital encounter within 30 days. The following applies: for Unadjusted Odds Ratio, ED or hospital encounter within 30 days / Adjusted Odds Ratio, ED or hospital encounter within 30 days: vs No Antidepressant (Ref); for Unadjusted Odds Ratio, ED or hospital encounter within 30 days: logistic regression; for Adjusted Odds Ratio, ED or hospital encounter within 30 days: multivariable logistic regression, complete cases. Type of assay: in vivo, human.

The mark [4] stands for this setting: share of exposed outpatients with an encounter after a positive SARS-CoV-2 test.

pKi: −log10 of the molar value.

T1 sequence (Q99720 whole entry): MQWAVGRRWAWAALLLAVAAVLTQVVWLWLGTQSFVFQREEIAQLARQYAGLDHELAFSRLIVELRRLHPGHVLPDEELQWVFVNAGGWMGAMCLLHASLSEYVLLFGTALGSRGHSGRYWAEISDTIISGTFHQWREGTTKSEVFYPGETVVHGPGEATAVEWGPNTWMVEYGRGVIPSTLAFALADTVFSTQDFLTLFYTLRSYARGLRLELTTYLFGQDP

By pKi is commonly meant −log10 of the Ki, conventionally taken in molar units. As to `COC(=O)C1(c2ccc(C)cc2)CC1CN1CCC(O)(c2ccccc2)CC1` (single isomer, unassigned; (+)) [(+)-MR 200], the pKi in assay [1] was greater than 7.30. Moreover, the “Function on σ1 Site” value in assay [2] is listed as “Antagonist”.
Consider `CC(C)=CCN1CCC2(C)c3cc(O)ccc3CC1C2C` (single isomer, unassigned; (+)) [(+)-Pentazocine], for which the “Function on σ1 Site” value in assay [2] is listed as “Agonist”.
For `CC(C)=CCN1CCC2(C)c3cc(O)ccc3CC1C2C` (single isomer, unassigned; (-)) [(−)-Pentazocine], in assay [2], the “Function on σ1 Site” value was “Agonist”.
As to `O=C(NC1CCN(Cc2ccccc2)CC1)c1ccc(I)cc1` [4-IBP], the negative-log Ki (pKi) in assay [1] is greater than 7.30. Also, the “Function on σ1 Site” value in assay [2] is “Agonist”.
Regarding `CCCN1CCC[C@H](c2cccc(O)c2)C1` [(+)-3-PPP], the “Function on σ1 Site” value in assay [2] is “Agonist”.
As for `NC12CC3CC(CC(C3)C1)C2` [Amantadine], the “Function on σ1 Site” value in assay [2] is “Agonist^?”.
With `CN(C)CCN(C)CCc1ccc(Cl)c(Cl)c1` [BD 1047], the “Function on σ1 Site” value in assay [2] is “Antagonist”.
For the compound `CN1CCN(CCc2ccc(Cl)c(Cl)c2)CC1` [BD 1063], the pKi in assay [1] is greater than 7.30. Besides, the “Function on σ1 Site” value in assay [2] was “Antagonist”.
As to `OC(CCCN1CCN(c2ncc(F)cn2)CC1)c1ccc(F)cc1` (stereo not shown) [BMY 14802], in assay [2], the “Function on σ1 Site” value is “Antagonist”.
On to `CCN(CC)CCOCCOC(=O)C1(c2ccccc2)CCCC1` [Carbetapentane], for which the pKi in assay [1] is greater than 7.30. Further, the “Function on σ1 Site” value in assay [2] is recorded as “Agonist”.
Regarding `C#CCN(C)CCCOc1ccc(Cl)cc1Cl` [Clorgyline], the pKi in assay [1] was greater than 7.30. The “Function on σ1 Site” value in assay [2] is on record as “Agonist^?”.
`COC(=O)[C@H]1[C@@H](OC(=O)c2ccccc2)C[C@@H]2CC[C@H]1N2C` [Cocaine]: the pKi in assay [1] is greater than 5.00.
Consider `C[C@]12CC[C@H](OS(=O)(=O)O)CC1=CC[C@@H]1[C@@H]2CC[C@]2(C)C(=O)CC[C@@H]12` [DHEAS], for which, in assay [1], the pKi was greater than 5.00. Further, the “Function on σ1 Site” value in assay [2] is on record as “Agonist”.
In the case of `CN(C)CC(c1ccc(O)cc1)C1(O)CCCCC1` (stereo not shown) [Desvenlafaxine], the “ED or hospital encounter within 30 days, %” value in assay [3] (setting [4]) is 18.7%. For the same compound, in assay [3], the “Unadjusted Odds Ratio, ED or hospital encounter within 30 days” value (shortened to “Unadjusted Odds Ratio”) is 2.15 and the “Adjusted Odds Ratio, ED or hospital encounter within 30 days” value is listed as 0.95.
With `Cc1ccc2c(c1)[C@]13CCCC[C@@H]1[C@H](C2)N(C)CC3` [Dimemorfan], in assay [1], the negative logarithm of the Ki (pKi) is greater than 6.30. In addition, the “Function on σ1 Site” value in assay [2] is recorded as “Agonist”.
As for `COc1cc2c(cc1OC)C(=O)C(CC1CCN(Cc3ccccc3)CC1)C2` (stereo not shown) [Donepezil], the pKi in assay [1] is greater than 7.30. The “Function on σ1 Site” value in assay [2] is given as “Agonist”.
Take `CN(C)CCC=C1c2ccccc2COc2ccccc21` [Doxepin]: the “ED or hospital encounter within 30 days, %” value in assay [3] (setting [4]) worked out at 27.5%. Moreover, in assay [3], the “Unadjusted Odds Ratio” value was 3.55 and the “Adjusted Odds Ratio, ED or hospital encounter within 30 days” value worked out at 1.10.
Taken in the same sequence, the figures for `CNCC[C@H](Oc1cccc2ccccc12)c1cccs1` [Duloxetine] were 21.8%, 2.61 and 0.95.
Turning to `O=C(CC1CCN(CC2CC2)CC1)c1ccc(F)cc1` [Dup 734], the pKi in assay [1] was greater than 7.30.
With `Fc1ccc(C2=CCN(CCCCn3cncn3)CC2)cc1.O=C(O)CC(O)(CC(=O)O)C(=O)O` [E-5842], in assay [1], the negative-log Ki (pKi) was greater than 7.30. Also, the “Function on σ1 Site” value in assay [2] is given as “Antagonist”.
As to `OC(CN1CCC(Cc2ccc(F)cc2)CC1)c1ccc(Cl)cc1` (stereo not shown) [Eliprodil (SL-82.0715), Eliprodil], the negative-log Ki (pKi) in assay [1] was greater than 6.30.
For the compound `OC(CCCN1CCC(O)(c2ccc(Cl)cc2)CC1)c1ccc(F)cc1` (stereo not shown) [Haloperidol Metabolite II], the “Function on σ1 Site” value in assay [2] is “Irreversible”.
Regarding `OC1(c2ccc(Cl)cc2)CCNCC1` [Haloperidol Metabolite I], in assay [1], the pKi is greater than 6.30. The “Function on σ1 Site” value in assay [2] is listed as “Antagonist”.
With `CCC(C/C=C/c1ccccc1)(c1ccccc1)N(C)CC1CC1` (stereo not shown) [JO-1784 (Igmesine), Igmesine], in assay [1], the negative logarithm of the Ki (pKi) was greater than 7.30. In addition, the “Function on σ1 Site” value in assay [2] was “Agonist”.
In the case of `CCN(CC)C(=O)[C@@]1(c2ccccc2)C[C@H]1CN` [Levomilnacipran], the “ED or hospital encounter within 30 days, %” value in assay [3] (setting [4]) is 20.0%.
With `CNC(C)Cc1ccc2c(c1)OCO2` (stereo not shown) [MDMA], in assay [1], the pKi is greater than 5.00.
Take `COCCN1CCN(C[C@H]2CCN(c3ccc(Cl)cc3)C2=O)CC1.O=C(O)C(O)C(O)C(=O)O` [MS-377]: the pKi in assay [1] is greater than 7.30. For the same compound, in assay [2], the “Function on σ1 Site” value is “Antagonist”.
On to `CC12CC3CC(C)(C1)CC(N)(C3)C2` [Memantine], for which the pKi in assay [1] is greater than 5.00. Further, the “Function on σ1 Site” value in assay [2] was “Agonist^?”.
Consider `CN[C@@H](C)Cc1ccccc1` [Metamphetamine], for which, in assay [1], the pKi was greater than 5.00.
Take `S=C=Nc1cccc(C2(N3CCCCC3)CCCCC2)c1` [Metaphit]: the pKi in assay [1] was greater than 6.30. Also, the “Function on σ1 Site” value in assay [2] is listed as “Irreversible”.
Consider `CN1CCN2c3ncccc3Cc3ccccc3C2C1` (stereo not shown) [Mirtazapine], for which the “ED or hospital encounter within 30 days, %” value in assay [3] (setting [4]) is 27.9%.
With `CCCN(CCC)CCc1ccc(OC)c(OCCc2ccccc2)c1` [NE-100], the “Function on σ1 Site” value in assay [2] is given as “Antagonist”.
For the compound `CCc1nn(CCCN2CCN(c3cccc(Cl)c3)CC2)c(=O)n1CCOc1ccccc1` [Nefazodone], the “ED or hospital encounter within 30 days, %” value in assay [3] (setting [4]) worked out at 0.0%.
On to `CNc1cc(OC)c(C(=O)NC2CCN(Cc3ccccc3)C2C)cc1Cl` (stereo not shown) [Nemonapride], for which the negative logarithm of the Ki (pKi) in assay [1] is greater than 7.30.
For `CNCCC=C1c2ccccc2CCc2ccccc21` [Nortriptyline], in assay [3] (setting [4]), the “ED or hospital encounter within 30 days, %” value was 24.3%. In assay [3], the “Unadjusted Odds Ratio” value was 3.02 and the “Adjusted Odds Ratio, ED or hospital encounter within 30 days” value is listed as 1.08.
In the case of `COc1cccc2c1CCC(=O)N2CCCN1CCN(c2cccc(Cl)c2)CC1` [OPC-14523], in assay [1], the pKi is greater than 7.30. Also, in assay [2], the “Function on σ1 Site” value was “Agonist”.
Take `O=C(OCCN1CCOCC1)C1(c2ccccc2)CCCCC1` [PRE 084]: the “Function on σ1 Site” value in assay [2] is recorded as “Agonist”.
For `COc1ccc(N2C[C@H](CN3CCC(O)(c4ccc5c(c4)OCO5)CC3)OC2=O)cc1` [Panamesine (EMD 57445), Panamesine], in assay [1], the pKi was greater than 7.30. Also, the “Function on σ1 Site” value in assay [2] is reported as “Antagonist”.
For the compound `O=C1NC(=O)C(c2ccccc2)(c2ccccc2)N1` [Phenytoin (DPH), Phenytoin], in assay [2], the “Function on σ1 Site” value was “Allosteric”.
Regarding `CC(=O)[C@H]1CC[C@H]2[C@@H]3CCC4=CC(=O)CC[C@]4(C)[C@H]3CC[C@]12C` [Progesterone], in assay [2], the “Function on σ1 Site” value is listed as “Antagonist”.
On to `C[C@@H]1CN(CCCn2c3ccccc3c3ccccc32)C[C@H](C)N1` [Rimcazole (BW-234U), Rimcazole], for which the “Function on σ1 Site” value in assay [2] was “Antagonist”.
For the compound `Cc1cccc(/C=N/N2CCN(C(c3ccccc3)c3ccccc3)CC2)n1` [Ropizine], the “Function on σ1 Site” value in assay [2] is listed as “Allosteric”.
Turning to `O=c1n(CCCN2CCN(c3cccc(Cl)c3)CC2)nc2ccccn12` [Trazodone], in assay [3] (setting [4]), the “ED or hospital encounter within 30 days, %” value amounted to 22.6%. Also, in assay [3], the “Unadjusted Odds Ratio” value was determined as 2.74 and the “Adjusted Odds Ratio, ED or hospital encounter within 30 days” value is given as 0.99.
Taken in the same sequence, the figures for `N#Cc1ccc2[nH]cc(CCCCN3CCN(c4ccc5oc(C(N)=O)cc5c4)CC3)c2c1` [Vilazodone] were 29.4%, 3.91 and 1.36.
Consider `Cc1ccc(Sc2ccccc2N2CCNCC2)c(C)c1` [Vortioxetine], for which the “ED or hospital encounter within 30 days, %” value in assay [3] (setting [4]) was 14.3%. For the same compound, in assay [3], the “Unadjusted Odds Ratio” value is reported as 1.56 and the “Adjusted Odds Ratio, ED or hospital encounter within 30 days” value was 0.58.
For `CC(NC(C)(C)C)C(=O)c1cccc(Cl)c1` (stereo not shown) [bupropion], the “ED or hospital encounters within 30 days, %” value in assay [3] (<20 mg fluoxetine-equivalent daily) is 13.9%; in assay [3] (≥20 mg fluoxetine-equivalent daily), 15.0%; in assay [3] (≥40 mg fluoxetine-equivalent daily), 20.0%. Also, the “ED or hospital encounter within 30 days, %” value in assay [3] (setting [4]) worked out at 14.3%.
`CN(C)CCCC1(c2ccc(F)cc2)OCc2cc(C#N)ccc21` (stereo not shown) [citalopram]: in assay [3] (setting [4]), the “ED or hospital encounter within 30 days, %” value was 15.8%.
Regarding `CN(C)CCCN1c2ccccc2CCc2ccc(Cl)cc21` [clomipramine], in assay [3] (in vivo), the “ED or hospital encounter within 30 days, %” value is 18.2%.
With `CNCCCN1c2ccccc2CCc2ccccc21` [desipramine], in assay [3] (setting [4]), the “ED or hospital encounter within 30 days, %” value turned out to be 10.0%. In assay [3], the “Unadjusted Odds Ratio” value worked out at 1.04 and the “Adjusted Odds Ratio, ED or hospital encounter within 30 days” value was determined as 0.24.
As for `CN(C)CCCN1c2ccccc2CCc2ccccc21` [imipramine], the “ED or hospital encounter within 30 days, %” value in assay [3] (setting [4]) was determined as 23.5%. The pKi in assay [1] is greater than 6.30. For the same compound, the “Function on σ1 Site” value in assay [2] is “Agonist”.
For the compound `COc1ccc(C(CN(C)C)C2(O)CCCCC2)cc1` (stereo not shown) [venlafaxine], in assay [3] (setting [4]), the “ED or hospital encounter within 30 days, %” value worked out at 17.1%. Further, in assay [3], the “Unadjusted Odds Ratio” value worked out at 1.94 and the “Adjusted Odds Ratio, ED or hospital encounter within 30 days” value was 0.78.
Pregnenolone sulfate: in assay [2], the “Function on σ1 Site” value is on record as “Agonist”.
